Test results reported in BindingDB's records for patent US10174013 (Selvita S.A., 2019).

Legend:
[1] = target: Potassium voltage-gated channel subfamily H member 2 (Homo sapiens, UniProt Q12809); experiment: Determination of a Possible Activity on hERG
Procedure: In order to establish whether the compounds of the present invention act on hERG, the following experiment was carried out.The in vitro effects of the compounds indicated in Table 5 on the hERG potassium channel current (a surrogate for Iκr, the rapidly activating, delayed rectifier cardiac potassium current) expressed in mammalian cells were evaluated at room temperature using the QPatch HT (Sophion Bioscience A/S, Denmark), an automatic parallel patch clamp system. Each compound indicated in Table 5 was evaluated at 0.1, 1, 3, 10 and 30 μM with each concentration tested in a minimum of two cells (n≥2). The duration of exposure to each compound concentration was 3 minutes.

[2] = target: Receptor-type tyrosine-protein kinase FLT3 [D835H] (Homo sapiens, UniProt P36888, D835H); experiment: FLT3 Kinase assay
Procedure: (§1) Selected compounds were also tested for their binding properties against FLT3 kinase mutants using suitable in vitro assays (performed according to standard assays at DiscoveRx Corporation). The compounds show strong binding to the main oncogenic mutants of the FLT3 kinase.

[3] = target: Receptor-type tyrosine-protein kinase FLT3 [D835Y] (Homo sapiens, UniProt P36888, D835Y); experiment: FLT3 Kinase assay
Procedure: as §1

[4] = target: Receptor-type tyrosine-protein kinase FLT3 (Homo sapiens, UniProt P36888); experiment: FLT3 Kinase assay
Procedure: as §1

Chain of Potassium voltage-gated channel subfamily H member 2 (Q12809 whole entry): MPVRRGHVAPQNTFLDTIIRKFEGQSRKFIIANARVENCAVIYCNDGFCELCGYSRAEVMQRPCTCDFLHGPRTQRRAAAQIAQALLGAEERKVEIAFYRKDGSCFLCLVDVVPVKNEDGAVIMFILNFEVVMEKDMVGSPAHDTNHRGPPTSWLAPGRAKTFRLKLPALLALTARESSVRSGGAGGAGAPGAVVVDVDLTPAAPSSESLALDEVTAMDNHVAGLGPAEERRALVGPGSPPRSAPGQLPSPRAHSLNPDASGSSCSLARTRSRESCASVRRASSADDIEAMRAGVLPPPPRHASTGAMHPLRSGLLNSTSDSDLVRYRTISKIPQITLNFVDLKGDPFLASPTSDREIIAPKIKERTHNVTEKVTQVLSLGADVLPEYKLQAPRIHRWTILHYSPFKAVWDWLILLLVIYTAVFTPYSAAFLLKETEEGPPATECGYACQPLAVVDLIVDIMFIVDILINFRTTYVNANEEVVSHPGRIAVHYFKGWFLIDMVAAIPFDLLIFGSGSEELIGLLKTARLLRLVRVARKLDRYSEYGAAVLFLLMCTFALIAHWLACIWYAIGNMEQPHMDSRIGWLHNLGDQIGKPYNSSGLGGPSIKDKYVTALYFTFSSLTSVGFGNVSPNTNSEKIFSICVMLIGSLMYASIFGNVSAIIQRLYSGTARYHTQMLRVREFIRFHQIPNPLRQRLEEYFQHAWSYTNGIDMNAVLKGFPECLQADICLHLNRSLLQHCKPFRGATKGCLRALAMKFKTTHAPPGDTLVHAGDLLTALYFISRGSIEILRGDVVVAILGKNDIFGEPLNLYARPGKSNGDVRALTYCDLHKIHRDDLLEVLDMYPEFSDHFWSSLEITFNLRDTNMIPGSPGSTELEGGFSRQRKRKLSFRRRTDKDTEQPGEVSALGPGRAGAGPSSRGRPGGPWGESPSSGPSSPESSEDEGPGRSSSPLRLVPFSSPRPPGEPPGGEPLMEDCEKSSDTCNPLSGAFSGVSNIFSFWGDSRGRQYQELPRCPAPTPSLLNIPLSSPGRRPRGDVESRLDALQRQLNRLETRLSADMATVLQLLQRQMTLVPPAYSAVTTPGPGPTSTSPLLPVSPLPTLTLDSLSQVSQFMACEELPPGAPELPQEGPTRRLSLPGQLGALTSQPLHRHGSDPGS

Kd [2] [nM] | Kd [3] [nM] | Kd [4] [nM] | SMILES | IC50 [1] [nM]
– | – | – | CCn1c(N2CCNCC2)nc2c([N+](=O)[O-])c(Br)c(Br)cc21 [US10174013, Example 1A] | 20400
28 | 15 | 130 | CC(C)n1c(N2CCNCC2)nc2c([N+](=O)[O-])c(Br)c(Br)cc21 [US10174013, Example 2A] | –
